In series [1] the test system is Env 134-specific T cell line. The experiment in a line: Env 134-specific T cell line (stimulated five times with the immunizing peptide): recognition and titration of variant peptides. It is filed as cell-based, mouse. The following applies: Env 134 line; for Peptide concentration at which any IFN-γ secretion was detected: highest peptide concentration examined; for Enrichment of CTL able to recognize the peptide: one versus five stimulations; for Affinity reduced from the parent peptide: peptide titration.

Series [2] deals with Gag 386-specific T cell line. The experiment in a line: Gag 386-specific T cell line (stimulated five times with the immunizing peptide): recognition and titration of variant peptides. It is filed as cell-based, mouse. The note with it: Gag 386 line; for Peptide affinity (titration against CTL stimulated 5 times with the parent peptide): IFN-γ. From the text: Recognition after multiple restimulations The observed recognition of variant peptides by CTL raised against the parent peptide might be due to either promiscuous recognition at the level of a single TCR or simply a mixture of TCRs against the immunizing peptide which are each able to recognize subtly different peptides. To distinguish between these two possibilities, Env 134- or Gag 386-specific T cell lines were generated by stimulating five times with the immunizing peptide, and then tested for recognition of a partial panel of variant peptides. These T cell lines were also characterized for Vβ TCR usage against a panel of antibodies predicted to react with the TCR of the mouse strains utilized for these experiments.
Because the SU is a measure of the number of cells needed to secrete a defined amount of IFN-γ, a higher SU value would correspond to an enrichment of IFN-γ, producing cells.
Both lines were also characterized with regard to the affinity of certain of the variant peptides by titrating the variant peptides examined above (Table 5A and 5B).

A further series relates to Gag 271 variants. The experiment in a line: Gag 271 variant immunogenicity tested using HLA-A2 transgenic mice. It is filed as in vivo. The note with it: 167 HIV variants. From the text: This particular group of 21 epitopes was selected based on their identity conservation in Clade B HIV sequences, with conservation across HIV clades as a secondary consideration. Because of this criteria, the form of epitope chosen as the parent peptide was not the most common variant (e.g. Gag 386, Gag 271, Pol 98). In some cases (e.g., see Gag 386 data), the “parent” epitope and the most common variant were recognized to the same extent. However, in some cases the selection of epitope to include as the “parent” epitope was predicted to make a difference in the immunological conservation. An example of this was the Gag 271 epitope (FIG. 4). The variant most commonly seen in clade B sequences was the […] form, while the most common form of the epitope was […]. Not all amino acids are considered equal to each other in their ability to substitute (Tangri). For example, asparagine (N) is considered a conservative substitution for serine (S), while the opposite substitution in only considered semi-conserved. When the program calculated immunological conservation using the […] peptide as the parent peptide, only two variants were predicted to be immunogenic. […] This prediction was tested using HLA-A2 transgenic mice. […] This has important implications in epitope selection for vaccine development, and epitope performance can be predicted.

The subject of a further series is normal human T cells. It is filed as cell-based.
In the next series the test system is HLA-DR molecules. The following applies: cited from earlier work.
Series [3] relates to CTL primed against the parent peptide. In words: Recognition of variant peptides by CTL from DNA-immunized HLA-A11/K^b transgenic mice (IFN-γ secretion after restimulation of splenocytes). The format is cell-based. The following applies: parent Pol 98. From the text: Variants corresponding to five HLA-A2 and -A3 restricted epitopes from 167 HIV varianst were identified and synthesized. These represented all the complete sequences in the Los Alamos database at the time (116 strains), as well as 51 complete clade C sequences from Botswana, and included 22 subtype B and 62 subtype C sequences. These peptides were then characterized with regard to MHC binding, variant distribution, and immunogenicity. To measure immunogenicity, HLA-A2/K^b or HLA-A11/K^b transgenic mice were immunized with the epitopes encoded in a DNA based format ( ). Eleven days after immunization, splenocytes were restimulated with either the epitope corresponding to the epitope encoded by the DNA (parent) or each of the variant peptides. After 6 days in culture, IFN-γ secretion was measured in response to the peptide used to stimulate each culture.

The test system of series [4] is patients with recurrent or residual cervical carcinoma. The note with it: co-emulsified with HPV-derived CTL epitopes, cited from earlier work.

Read-outs that look alike come from different tables or passages of the source.

For ELTPLCVTL [Env 134 variant], in series [1], the “Activity as measured by SU after five restimulations” value (shortened to “Activity as measured by SU”) was “lowest activity”, the “Peptide concentration at which any IFN-γ secretion was detected” value (from here on “Peptide concentration”) stood at 1 µg/mL and the “Enrichment of CTL able to recognize the peptide” value (“Enrichment of CTL able” below) is “little or no enrichment”.
Take ILAEAMSKA [Gag 386 variant]: in series [2], the “Recognition of variant peptides (SU, IFN-γ), one versus five peptide stimulations” value is reported as “never recognized” and the “Peptide affinity (titration against CTL stimulated 5 times with the parent peptide)” value (“Peptide affinity” below) is “not recognized”.
Take KITPLCVTL [Env 134 variant]: the “Affinity reduced from the parent peptide” value in series [1] is recorded as “approximately 10 fold”.
As to KLTPFCVTL [Env 134 variant], in series [1], the “Activity as measured by SU” value is on record as “lowest activity”, the “Peptide concentration” value was 1 µg/mL and the “Enrichment of CTL able” value is recorded as “little or no enrichment”.
Take KLTPLCVIL [Env 134 variant]: in series [1], the “Activity as measured by SU” value is given as “lowest activity”, the “Peptide concentration” value was found to be 1 µg/mL and the “Enrichment of CTL able” value is reported as “little or no enrichment”.
Take KLTPLCVPL [Env 134 variant]: in series [1], the “Activity as measured by SU” value is given as “lowest activity”, the “Peptide concentration” value came to 1 µg/mL and the “Enrichment of CTL able” value is on record as “little or no enrichment”.
Consider MTNNPPIPV, for which, in the series with Gag 271 variants, the “Variants that would be recognized if this form of the peptide was utilized in vaccines” value is listed as 39 of 167 variants.
Take MTSNPPIPV: the “Variants that would be recognized if this form of the peptide was utilized in vaccines” value with Gag 271 variants was “approximately 152 of 167 variants”.
For QITPLCVTL [Env 134 variant], in series [1], the “Activity as measured by SU” value was “lowest activity”, the “Peptide concentration” value amounted to 1 µg/mL and the “Enrichment of CTL able” value is on record as “little or no enrichment”.
Consider QLTPLCVTL [Env 134 variant], for which the “Affinity reduced from the parent peptide” value in series [1] is reported as around 100 fold.
With QYIKANSKFIGITE [TT 830-843], in the series on normal human T cells, the “Antigen concentration at which the 10,000 cpm proliferation level was reached” value is listed as “about 10,000 ng/ml” and the “Donors with primary T cell responses” value came to 2. Further, the DR molecules bound result in the series with HLA-DR molecules is recorded as “seven”.
Turning to “VLAEAMSQI [Gag 386 single anchor variant]”, the “Peptide affinity” value in series [2] is listed as “highest affinity”.
Turning to VLAEAMSQV [Gag 386], the “Peptide affinity” value in series [2] was “highest affinity”.
On to VSIKVGGQIK, for which, in series [3], the “Recognition relative to the parent peptide” value is at most 10 fold.
Consider aKXVAAWTLKAAa-NH2 [PADRE®], for which the “Potency relative to TT 830-843 antigen for activation of T cell responses, on a molar basis” value in the series on normal human T cells is “about 100 fold”. In addition, the “Donors with primary T cell responses” value in the series with normal human T cells (three normal donors tested) was “three”. Moreover, the Safety result in series [4] is on record as “favorable safety profile”. Further, in series [4] (immunocompromised patients), the “Patients in whom PADRE T cell reactivity was detected” value is listed as “four”.

(Values after patent publication US20070054262A1, “Methods of identifying optimal variants of peptide epitopes” (priority 2003, published 2007).)
